From ChEMBL document CHEMBL1144590, “Thienopyridine urea inhibitors of KDR kinase” (Bioorg Med Chem Lett, 2007)
pIC50: −log10 of the molar value.

Legend:
[1] = molecular target: T1, Vascular endothelial growth factor receptor 2 (Homo sapiens, UniProt P35968)
[2] = molecular target: T1, Vascular endothelial growth factor receptor 2; assay type: functional, cell-based, NIH3T3
Cytochrome P450 3A4 = Cytochrome P450 3A4 (Homo sapiens, UniProt P08684); assay: Inhibition of CYP3A4; assay type: ADME
Mus musculus = assay: Inhibition of estradiol-induced mouse uterine edema […]; assay type: functional
[3] = Half life in mouse at 3 mg/kg, iv; assay type: ADME, organism-based; design: dose 3 mg/kg, route intravenous; settings: in vivo

T1 sequence (P35968 whole entry): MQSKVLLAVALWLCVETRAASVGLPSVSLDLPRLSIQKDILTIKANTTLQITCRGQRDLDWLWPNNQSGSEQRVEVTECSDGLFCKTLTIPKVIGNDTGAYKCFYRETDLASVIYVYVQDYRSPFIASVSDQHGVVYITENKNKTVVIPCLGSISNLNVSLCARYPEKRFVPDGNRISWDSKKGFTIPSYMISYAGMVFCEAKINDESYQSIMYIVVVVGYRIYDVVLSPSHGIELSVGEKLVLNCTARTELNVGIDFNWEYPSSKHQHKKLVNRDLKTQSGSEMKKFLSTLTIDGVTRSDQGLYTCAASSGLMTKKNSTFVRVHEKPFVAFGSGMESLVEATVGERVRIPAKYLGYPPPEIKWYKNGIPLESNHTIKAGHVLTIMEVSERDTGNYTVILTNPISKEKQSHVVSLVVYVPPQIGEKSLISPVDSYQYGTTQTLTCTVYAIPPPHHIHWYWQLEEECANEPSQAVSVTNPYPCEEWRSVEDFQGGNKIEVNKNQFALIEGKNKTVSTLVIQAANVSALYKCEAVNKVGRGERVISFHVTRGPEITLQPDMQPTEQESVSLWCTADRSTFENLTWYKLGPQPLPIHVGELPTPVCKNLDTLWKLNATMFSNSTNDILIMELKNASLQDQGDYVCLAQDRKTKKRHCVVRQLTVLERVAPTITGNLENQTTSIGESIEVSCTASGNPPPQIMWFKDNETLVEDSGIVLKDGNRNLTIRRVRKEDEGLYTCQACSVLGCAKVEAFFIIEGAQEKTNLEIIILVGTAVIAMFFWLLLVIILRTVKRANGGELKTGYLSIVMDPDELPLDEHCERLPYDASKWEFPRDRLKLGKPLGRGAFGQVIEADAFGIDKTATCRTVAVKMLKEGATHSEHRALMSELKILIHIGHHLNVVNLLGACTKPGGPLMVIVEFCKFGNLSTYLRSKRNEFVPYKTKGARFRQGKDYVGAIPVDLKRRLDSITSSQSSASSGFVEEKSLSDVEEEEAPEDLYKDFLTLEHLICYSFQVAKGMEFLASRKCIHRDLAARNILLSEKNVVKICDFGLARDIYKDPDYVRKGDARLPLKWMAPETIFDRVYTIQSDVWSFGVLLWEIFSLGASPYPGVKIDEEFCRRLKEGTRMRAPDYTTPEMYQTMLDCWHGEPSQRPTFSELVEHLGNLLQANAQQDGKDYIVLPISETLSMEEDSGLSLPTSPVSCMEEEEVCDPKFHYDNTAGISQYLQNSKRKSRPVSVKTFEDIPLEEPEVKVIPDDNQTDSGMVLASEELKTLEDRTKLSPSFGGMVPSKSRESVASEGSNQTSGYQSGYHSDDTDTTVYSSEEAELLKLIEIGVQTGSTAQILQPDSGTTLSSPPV
Cytochrome P450 3A4, sequence (P08684 whole entry): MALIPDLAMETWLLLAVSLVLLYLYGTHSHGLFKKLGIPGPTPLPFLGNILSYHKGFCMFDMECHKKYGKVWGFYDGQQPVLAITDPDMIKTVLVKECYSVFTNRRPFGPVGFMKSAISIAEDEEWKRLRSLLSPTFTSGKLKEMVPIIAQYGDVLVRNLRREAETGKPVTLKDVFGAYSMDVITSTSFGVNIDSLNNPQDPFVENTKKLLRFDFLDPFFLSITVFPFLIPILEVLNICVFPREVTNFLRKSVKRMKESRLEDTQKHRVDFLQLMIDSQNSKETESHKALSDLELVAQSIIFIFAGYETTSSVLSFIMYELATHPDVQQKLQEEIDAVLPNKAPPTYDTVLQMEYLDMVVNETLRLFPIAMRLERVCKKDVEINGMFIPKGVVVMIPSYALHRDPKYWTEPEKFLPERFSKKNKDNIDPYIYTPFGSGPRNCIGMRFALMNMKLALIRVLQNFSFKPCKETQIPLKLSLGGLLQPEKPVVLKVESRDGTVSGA

pIC50 [1] | pIC50 [2] | SMILES | other results
7.60 | 7.49 | CCc1cccc(NC(=O)Nc2ccc(-c3csc4ccnc(N)c34)cc2)c1 | 
8.10 | 9.00 | Cc1cccc(NC(=O)Nc2ccc(-c3csc4c(-c5cncnc5)cnc(N)c34)cc2)c1 | 
6.41 |  | Cc1cccc(NC(=O)Nc2ccc(-c3csc4c(-c5cncc6ccccc56)cnc(N)c34)cc2)c1 | 
5.31 |  | Nc1ccc(-c2csc3ccnc(N)c23)cc1 | 
4.92 |  | Nc1nccc2scc(-c3ccc(NC(=O)c4ccccc4)cc3)c12 | 
7.25 | 7.14 | Nc1nccc2scc(-c3ccc(NC(=O)Nc4ccccc4)cc3)c12 | 
8.00 | 7.39 | Cc1ccc(NC(=O)Nc2ccc(-c3csc4ccnc(N)c34)cc2)cc1C | 
7.80 | 7.32 | Cc1cc(C)cc(NC(=O)Nc2ccc(-c3csc4ccnc(N)c34)cc2)c1 | 
6.38 |  | Nc1nccc2scc(-c3ccc(NC(=O)NC4CCCC4)cc3)c12 | 
5.31 |  | Cc1cccc(N(C)C(=O)Nc2ccc(-c3csc4ccnc(N)c34)cc2)c1 | 
7.64 |  | Cc1cccc(NC(=O)N(C)c2ccc(-c3csc4ccnc(N)c34)cc2)c1 | 
7.03 |  | Cc1cccc(NC(=O)Cc2ccc(-c3csc4ccnc(N)c34)cc2)c1 | 
7.12 | 6.05 | Nc1nccc2scc(-c3ccc(NC(=O)Nc4cccc5ccccc45)cc3)c12 | 
7.68 | 7.82 | Nc1nccc2scc(-c3ccc(NC(=O)Nc4ccc5ccccc5c4)cc3)c12 | 
7.42 | 7.21 | Nc1nccc2scc(-c3ccc(NC(=O)Nc4ccsc4)cc3)c12 | 
6.31 |  | Nc1nccc2scc(-c3ccc(NC(=O)NC4CCCCC4)cc3)c12 | 
6.60 |  | Cc1cccc(NC(=O)Nc2cccc(-c3csc4ccnc(N)c34)c2)c1 | 
7.59 | 6.85 | Cc1ccc(NC(=O)Nc2ccc(-c3csc4ccnc(N)c34)cc2)cc1 | 
7.89 | 7.48 | Cc1cccc(NC(=O)Nc2ccc(-c3csc4c(-c5ccccc5)cnc(N)c34)cc2)c1 | 
7.96 | 7.25 | CNC(=O)c1cccc(-c2cnc(N)c3c(-c4ccc(NC(=O)Nc5cccc(C)c5)cc4)csc23)c1 | 
6.39 |  | Cc1cccc(NC(=S)Nc2ccc(-c3csc4ccnc(N)c34)cc2)c1 | 
7.57 |  | Cc1cccc(NC(=O)Nc2ccc(-c3c(C)sc4ccnc(N)c34)cc2)c1 | 
6.28 |  | Cc1cccc(CC(=O)Nc2ccc(-c3csc4ccnc(N)c34)cc2)c1 | 
6.82 |  | Cc1ccccc1NC(=O)Nc1ccc(-c2csc3ccnc(N)c23)cc1 | 
7.35 | 6.70 | N#Cc1cccc(NC(=O)Nc2ccc(-c3csc4ccnc(N)c34)cc2)c1 | 
7.52 | 7.32 | Nc1nccc2scc(-c3ccc(NC(=O)Nc4cccs4)cc3)c12 | 
7.96 | 7.54 | Cc1cccc(NC(=O)Nc2ccc(-c3csc4c(-c5ccc(O)cc5)cnc(N)c34)cc2)c1 | 
 |  | Cc1cccc(NC(=O)Nc2ccc(-c3csc4c(-c5cccnc5)cnc(N)c34)cc2)c1 | pIC50 (Cytochrome P450 3A4): 6.60; ED50 (Mus musculus): 2.1 mg/kg; half-life [3]: 24 min
< 4.90 |  | Nc1nccc2scc(-c3ccccc3)c12 | 
